We go through 1 compound from PMC10221159, “Investigation of N-Acetyltransferase 2-Mediated Drug Interactions of Amifampridine: In Vitro and In Vivo Evidence of Drug Interactions with Acetaminophen” (Pharmaceutics, 2023).

The target in series [1] is T1, NAT2 (Rattus norvegicus, UniProt P50298).
T1 sequence (P50298 1-290): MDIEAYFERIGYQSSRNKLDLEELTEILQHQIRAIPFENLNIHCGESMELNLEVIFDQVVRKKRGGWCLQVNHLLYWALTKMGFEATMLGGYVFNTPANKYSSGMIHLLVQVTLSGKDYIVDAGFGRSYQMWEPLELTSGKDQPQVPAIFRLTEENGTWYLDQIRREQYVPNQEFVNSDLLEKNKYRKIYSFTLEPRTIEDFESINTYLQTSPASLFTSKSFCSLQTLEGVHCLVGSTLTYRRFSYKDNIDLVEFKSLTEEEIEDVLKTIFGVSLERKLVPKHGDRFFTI
In words: Inhibition of amifampridine acetylation to 3-N-acetylamifampridine by NAT2 inhibitors, rat liver S9 fraction. Particulars: rat vs human liver S9 fractions. In kind it is biochemical. On the procedure: To determine the half maximal inhibitory concentration (IC50) value of NAT2 inhibitors (acetaminophen, apocynin, and cimetidine) on the metabolism of amifampridine to 3-N-acetylamifampridine, the reaction mixture consisted of a liver S9 fraction (2 mg/mL protein) and 2 mM acetyl-CoA in potassium phosphate buffer was pre-incubated for 5 min in a thermomixer at 37 °C. Then, the NAT2 inhibitors (final concentrations of 0, 1, 5, 10, 50, 100, 500, 1000, and 5000 μM) and amifampridine (final concentration of 50 μM) were added to the reaction mixture and incubated for 15 min at 37 °C. An amount of 50 μL of the mixture was then transferred into the tube and mixed with 100 μL of IS (5 ng/mL ondansetron in acetonitrile). The mixture was vortexed and centrifuged at 14,000 rpm for 15 min at 4 °C. The supernatant was transferred into vials for HPLC-MS/MS analysis and the concentration of 3-N-acetylamifampridine was determined.

Series [2] has as its target T1, NAT2. Description: Time-dependent inhibition of amifampridine metabolism by acetaminophen, rat liver S9 fraction. In kind it is biochemical. On the procedure: To examine whether acetaminophen could inhibit the metabolic activity of amifampridine in a time-dependent manner, the experiment was conducted by using a high concentration of amifampridine (approximately four-fold Km value) for different pre-incubation times (0, 10, 30, and 60 min) in the presence of different concentrations of acetaminophen (0, 10, 50, 100, and 500 μM). The reaction mixture contained the liver S9 fraction (2 mg/mL protein) and 2 mM acetyl-CoA in potassium phosphate buffer. Then, acetaminophen was added and pre-incubated at different times in a thermomixer at 37 °C. The reaction was then initiated by adding amifampridine (240 μM as a final concentration) and vortex mixing followed by incubation at 37 °C for 15 min. After incubation, the 50 μL aliquot was transferred into a tube containing 200 μL of ice-cold potassium phosphate to dilute it five-fold. […]
Kobs, the observed rate of enzyme loss, was estimated from the negative slopes of the lines using a linear regression analysis of the natural logarithm of metabolite formation as a function of incubation time. The first-order rate constant, Kinact, which represents the maximum rate of enzyme inactivation, was calculated using a nonlinear regression analysis as follows: Kobs=Kinact×I/Ki+I

Series [3] concerns the target T2, NAT2 (Homo sapiens, UniProt P11245).
T2 construct: in vitro using S9 fractions obtained from human, rat, and mouse livers; from tissue; host or cells: human liver S9 fraction
T2 sequence (P11245 1-290): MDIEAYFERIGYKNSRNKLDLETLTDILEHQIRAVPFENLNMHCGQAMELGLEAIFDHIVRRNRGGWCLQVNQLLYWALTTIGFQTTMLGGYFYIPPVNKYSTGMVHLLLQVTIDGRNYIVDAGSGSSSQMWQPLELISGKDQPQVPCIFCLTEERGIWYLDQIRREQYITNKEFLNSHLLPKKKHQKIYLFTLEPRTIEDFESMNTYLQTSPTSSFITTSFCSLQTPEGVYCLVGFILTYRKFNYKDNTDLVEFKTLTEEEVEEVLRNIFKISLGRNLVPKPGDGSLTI
More on the design: method as in PMID 26519524, PMID 9918139. Particulars: sulfamethazine acetylation, cited from earlier work.

Details of series [4]: method as in PMID 21074742. Particulars: humans, oral or intravenous administration; cited from earlier work.
Series [5] has as its target T1, NAT2. In words: Reversible inhibition mode of acetaminophen on amifampridine metabolism, rat liver S9 fraction (Lineweaver–Burk, secondary plots). The series is classed as biochemical. On the procedure: To determine the inhibition mechanism of amifampridine metabolism by acetaminophen, various concentrations of amifampridine (40, 80, 160, and 320 μM) were incubated with the rat liver S9 fraction in the presence of different concentrations of acetaminophen (0, 10, 50, 100, and 500 μM). After pre-incubating the reaction mixture containing 2 mM acetyl-CoA for 5 min in a thermomixer at 37 °C, acetaminophen and amifampridine were added and further incubated for 15 min at 37 °C. The samples were diluted five-fold using potassium phosphate buffer, then 50 μL of the diluted samples was transferred into the tube containing 100 μL of IS (5 ng/mL ondansetron in acetonitrile). The mixture was vortexed and centrifuged at 14,000 rpm for 15 min at 4 °C. The supernatant was transferred into vials for HPLC-MS/MS analysis and the concentration of 3-N-acetylamifampridine was determined.
The α value is the degree to which the binding of acetaminophen changes the affinity of the enzyme for amifampridine.

The target in series [6] is T2, NAT2. In words: Inhibition of amifampridine acetylation to 3-N-acetylamifampridine by NAT2 inhibitors, human liver S9 fraction. The series is classed as biochemical. Particulars: amifampridine 50 μM, 15 min.
Series [7] is described as follows: In vivo pharmacokinetic interaction study in rats (plasma). Set-up: species or system rat. Conditions: male, Sprague-Dawley, rat, plasma, ip, 100 mg/kg, acetaminophen 100 mg/kg intraperitoneally, rats. On the procedure: Male Sprague Dawley (SD) rats (7–8 weeks old, 260–330 g) were purchased from Orient Bio, Inc. (Seongnam, Korea). The rats were housed under a light/dark cycle for 12 h and were left for at least a week before the experiment to adapt to the laboratory environment. Water and food were provided ad libitum. The rats were fasted overnight with free access to water prior to pharmacokinetic studies. The protocols for animal experiments were approved in accordance with the Guidelines for Animal Care and Use of Gachon University (approval no.: GIACUC-R2021006; 13 May 2021).
The rats were anesthetized with a mixture of Rompun and Zoletil by intramuscular injection and received an intraperitoneal injection of vehicle (40:60 PEG400:normal saline; n = 8) or 100 mg/kg acetaminophen (n = 8). After 10 min, 2 mg/kg amifampridine (dissolved in saline) was administered orally. Blood samples were collected at 0, 5, 15, 30, 60, 90, 120, 240, and 360 min and centrifuged at 14,000 rpm for 15 min at 4 °C. For analysis of amifampridine and 3-N-acetylamifampridine, 50 μL of plasma samples was mixed with 100 μL IS solution (5 ng/mL ondansetron in acetonitrile) and the mixture was vortexed followed by centrifugation at 14,000 rpm for 15 min at 4 °C. For the analysis of acetaminophen, 200 μL of IS (tolbutamide 200 ng/mL in methanol) was added to the plasma samples which were diluted 10-fold using the blank plasma and then vortexed for one minute. Further, the samples were centrifuged at 14,000 rpm for 15 min at 4 °C. The supernatants were transferred to LC vials for quantification.
Non-compartment analysis (NCA) was performed to calculate the pharmacokinetic parameters for the in vivo study using WinNonlin (Version 8.3. (Pharsight Corporation, Mountain View, CA, USA)). The area under the plasma concentration–time curve from time 0 to infinity (AUCinf) was calculated by the linear trapezoidal method and standard extrapolation using λ, where λ represents the slope of the terminal phase in a semi-log graph for plasma concentration–time profiles. Renal clearance (CLr) was determined by dividing the accumulated amount of drug excreted in the urine by AUCinf.

“And” between values parts separate entries of the source, which are not always exact repeats. Equal values may be shown once. Read-outs that look alike come from different tables or passages of the source. Some results are limits rather than exact numbers.

For `CC(=O)Nc1ccc(O)cc1` [acetaminophen], the “stronger inhibitory effect in rats compared to humans (IC50 ratio)” value at NAT2 [1] was “approximately 29 fold”. Also, the “decrease of metabolic activity of amifampridine” value on NAT2 [2] (acetaminophen pre-incubated with rat liver S9) is “approximately 0.31 % per min”. In addition, the kinact at NAT2 [2] (pre-incubation 0-60 min, amifampridine 240 μM, rat liver S9) is 5.17e-05 s⁻¹. For the same compound, the Ki on NAT2 [3] (human liver cytosol from fast acetylators) was 2140 µM; at NAT2 [3] (human liver cytosol from slow acetylators), 712 µM. For the same compound, the Cmax in series [4] is no more than 200 µM; in series [7] it was 54800 ng/mL and 362 µM. The inhibition mode entry at NAT2 [5] (Lineweaver–Burk plot, rat liver S9) is on record as “mixed inhibition”. For the same compound, the α value at NAT2 [5] (rat liver S9, mixed inhibition model) is 3.48. Further, at NAT2 [5] (secondary plot (y-intercept), rat liver S9), the αKi stood at 238.8 ± 25.6 µM. At NAT2 [6], this compound displayed a 50% inhibitory concentration (IC50) of 4480 ± 742 µM.

The kinact is the rate constant of inactivation at saturating inhibitor. One may read the Ki as the dissociation constant of the complex between target and ligand, obtained from inhibition or displacement. As a reminder, the Cmax is the peak of the concentration-time curve. Usually IC50 stands for the midpoint of a concentration-inhibition curve. Lower therefore signals greater potency in that assay.
